From patent US20180170904A1, “PYRIDIN-3-YL ACETIC ACID DERIVATIVES AS INHIBITORS OF HUMAN IMMUNODEFICIENCY VIRUS REPLICATION” (priority 2015, published 2018)
Where two headings read alike, the source gives them in different places.

Test system: NL-RLuc virus (recombinant NL4-3 proviral clone with Renilla Luciferase gene)
Assay: Inhibition of HIV replication (NL-RLuc reporter virus in MT-2 cells)
Type: cell-based
Details: Renilla, NL43, 120 h
In short: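 MT-2 cells infected with NL4-3-derived NL-RLuc reporter virus (Renilla luciferase replacing part of nef) with serial compound dilutions, RPMI 1640 + 10% FBS; 5 days. Growth by luciferase; EC50 from median effect equation, ≥2 experiments.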

| Structure (SMILES) | EC50 (read-out: Activity) [µM] | EC50 (read-out: EC50 μM) [µM] |
| --- | --- | --- |
| Cc1nc(C)c([C@H](OC(C)(C)C)C(=O)O)c(N2CCC(C)(C)CC2)c1-c1ccc(N)cc1 [Example 70, (S)-2-(5-(4-Aminophenyl)-4-(4,4-dimethylpiperidin-1-yl)-2,6-dimethylpyridin-3-yl)-2-(tert-butoxy)acetic acid] | 0.1 to 1 |  |
| Cc1nc(C)c([C@H](OC(C)(C)C)C(=O)O)c(N2CCC(C)(C)CC2)c1-c1cccc(C(C)C)c1 [Example 40, (S)-2-(tert-Butoxy)-2-(4-(4,4-dimethylpiperidin-1-yl)-5-(3-isopropylphenyl)-2,6-dimethylpyridin-3-yl)acetic acid] | < 0.1 |  |
| Cc1nc(C)c([C@H](OC(C)(C)C)C(=O)O)c(N2CCC(C)(C)CC2)c1-c1ccc(C(=O)NCc2ccccn2)cc1 [Example 66, (S)-2-(tert-Butoxy)-2-(4-(4,4-dimethylpiperidin-1-yl)-2,6-dimethyl-5-(4-((pyridin-2-ylmethyl)carbamoyl)phenyl)pyridin-3-yl)acetic acid] | < 0.1 |  |
| CNS(=O)(=O)c1ccc(-c2c(C)nc(C)c([C@H](OC(C)(C)C)C(=O)O)c2N2CCC(C)(C)CC2)cc1 [Example 32, (S)-2-(tert-Butoxy)-2-(4-(4,4-dimethylpiperidin-1-yl)-2,6-dimethyl-5-(4-(N-methylsulfamoyl)phenyl)pyridin-3-yl)acetic acid] | 0.1 to 1 |  |
| Cc1nc(C)c([C@H](OC(C)(C)C)C(=O)O)c(N2CCC(C)(C)CC2)c1-c1ccc(-c2ccc(Cl)cc2)cc1 [Example 11, (S)-2-(tert-Butoxy)-2-(5-(4′-chloro-[1,1′-biphenyl]-4-yl)-4-(4,4-dimethylpiperidin-1-yl)-2,6-dimethylpyridin-3-yl)acetic acid] | 0.1 to 1 | 0.135 |
| CCOC(=O)Nc1ccc(-c2c(C)nc(C)c([C@H](OC(C)(C)C)C(=O)O)c2N2CCC(C)(C)CC2)cc1 [Example 71, (S)-2-(tert-Butoxy)-2-(4-(4,4-dimethylpiperidin-1-yl)-5-(4-((ethoxycarbonyl)amino)phenyl)-2,6-dimethylpyridin-3-yl)acetic acid] | < 0.1 |  |
| Cc1nc(C)c([C@H](OC(C)(C)C)C(=O)O)c(N2CCC(C)(C)CC2)c1-c1ccc(C(=O)NCCc2ccc(F)cc2)cc1 [Example 2, (S)-2-(tert-Butoxy)-2-(4-(4,4-dimethylpiperidin-1-yl)-5-(4-((4-fluorophenethyl)carbamoyl)phenyl)-2,6-dimethylpyridin-3-yl)acetic acid] | < 0.1 |  |
| CCC1(C)CCN(c2c(-c3ccc(C(=O)NCc4ccccc4)cc3)c(C)nc(C)c2[C@H](OC(C)(C)C)C(=O)O)CC1 [Example 56, (S)-2-(5-(4-(Benzylcarbamoyl)phenyl)-4-(4-ethyl-4-methylpiperidin-1-yl)-2,6-dimethylpyridin-3-yl)-2-(tert-butoxy)acetic acid] | < 0.1 |  |
| Cc1nc(C)c([C@H](OC(C)(C)C)C(=O)O)c(N2CCC(C)(C)CC2)c1-c1ccc(S(=O)(=O)C(C)C)cc1 [Example 30, (S)-2-(tert-Butoxy)-2-(4-(4,4-dimethylpiperidin-1-yl)-5-(4-(isopropylsulfonyl)phenyl)-2,6-dimethylpyridin-3-yl)acetic acid] | < 0.1 |  |
| Cc1nc(C)c([C@H](OC(C)(C)C)C(=O)O)c(N2CCC(C)(C)CC2)c1-c1ccc(C(=O)NCc2c(F)cc(F)cc2F)cc1 [Example 69, (S)-2-(tert-Butoxy)-2-(4-(4,4-dimethylpiperidin-1-yl)-2,6-dimethyl-5-(4-((2,4,6-trifluorobenzyl)carbamoyl)phenyl)pyridin-3-yl)acetic acid] | < 0.1 | 0.004 |
| Cc1nc(C)c([C@H](OC(C)(C)C)C(=O)O)c(N2CCC(C)(C)CC2)c1-c1ccc(-c2ccccc2)cc1 [Example 8, (S)-2-(5-([1,1′-Biphenyl]-4-yl)-4-(4,4-dimethylpiperidin-1-yl)-2,6-dimethylpyridin-3-yl)-2-(tert-butoxy)acetic acid] | < 0.1 | 0.031 |
| Cc1nc(C)c([C@H](OC(C)(C)C)C(=O)O)c(N2CCC(C(F)(F)F)CC2)c1-c1ccc(C(=O)NCc2ccccc2)cc1 [Example 54, (S)-2-(5-(4-(Benzylcarbamoyl)phenyl)-2,6-dimethyl-4-(4-(trifluoromethyl)piperidin-1-yl)pyridin-3-yl)-2-(tert-butoxy)acetic acid] | < 0.1 |  |
| Cc1nc(C)c([C@H](OC(C)(C)C)C(=O)O)c(N2CCC(C)(C)CC2)c1-c1ccc(N(CCc2ccc(F)cc2)C(O)Cc2ccc(F)cc2)cc1 (stereo partly drawn) [Example 74, (2S)-2-(tert-Butoxy)-2-(4-(4,4-dimethylpiperidin-1-yl)-5-(4-((4-fluorophenethyl)(2-(4-fluorophenyl)-1-hydroxyethyl)amino)phenyl)-2,6-dimethylpyridin-3-yl)acetic acid] | < 0.1 |  |
